In patent US12502362B2, “Inhibitors of nucleotidyltransferase superfamily enzymes as antibiotics” (priority 2017, dated 2025):
≈ marks a conversion by molar mass, not a printed value. Like-named read-outs stand apart in the source and are kept apart here.

Legend:
S. aureus (ATCC 29213) = assay: MIC80 on S. aureus; format: cell-based, Staphylococcus aureus; conditions: S. aureus ATCC 29213 (MSSA); ≥80% growth inhibition
Experimental: (§1) To further characterize the compounds, the minimal inhibitory concentration (MIC80) were determined for selected compounds. MIC80 is defined as the compound concentration at which ≥80% bacterial growth is inhibited compare to untreated controls. Meanwhile, for the selected compounds, cytotoxicity assays (CC50) were performed on a HepG2-derived hepatoblastoma cell line (HEPDES19). […] For CC50 evaluation, soluble tetrazolium dye (MTS) was used to measure mitochondrial toxicity in a human hepatoblastoma cell line (18). The bacteria (E. coli, S. saprophyticus and A. baumannii) used in MIC80 measurements were the same as that in the primary screening, but for Staphylococcus, S. aureus is used primarily because it is a common pathogen in Staphylococcaeae family, while S. saprophyticus is part of the normal human flora.

E. coli (ATCC 35218) = assay: microbe, parasite or virus in culture; format: cell-based; conditions: E. coli ATCC 35218
Experimental: as §1

[1] = test system: S. aureus ATCC strains and MRSA; format: cell-based, Staphylococcus aureus
[2] = test system: Staphylococcus epidermidis; format: cell-based; for FOX screen: key: POS: cefoxitin-screen positive (resistant to cefoxitin)
Experimental: (§2) It was also tested whether compounds #63 and #285 can inhibit other coagulase-negative Staphylococcus (CNS) including S. epidermidis, S. hominis, etc. […].

Staphylococcus hominis = format: cell-based; for FOX screen: key: POS: cefoxitin-screen positive (resistant to cefoxitin)
Experimental: as §2

[3] = test system: Coagulase negative Staphylococcus; assay: Antibiotic susceptibility of coagulase negative Staphylococcus strains; format: cell-based
[4] = Se1 (Staphylococcus epidermidis)
[5] = Se2 (Staphylococcus epidermidis)
[6] = Se3 (Staphylococcus epidermidis)
[7] = Se4 (Staphylococcus epidermidis)
[8] = Se5 (Staphylococcus epidermidis)
[9] = CNS1 (Coagulase negative Staphylococcus)
[10] = CNS2 (Coagulase negative Staphylococcus)

Structure (SMILES): O=c1cccccc1SSc1cccccc1=O [Compound 685]
- MIC80 S. aureus (S. aureus (ATCC 29213)): >100 µM
- MIC80 E. coli (E. coli (ATCC 35218)): 19.8 µM (≈ 5.43 µg/mL)

Structure (SMILES): CCCCCCCCCC(=O)N[C@@H](Cc1c[nH]c2ccccc12)C(=O)N[C@H](CC(N)=O)C(=O)N[C@@H](CC(=O)O)C(=O)N[C@@H]1C(=O)NCC(=O)N[C@@H](CCCN)C(=O)N[C@@H](CC(=O)O)C(=O)N[C@H](C)C(=O)N[C@@H](CC(=O)O)C(=O)NCC(=O)N[C@H](CO)C(=O)N[C@@H]([C@H](C)CC(=O)O)C(=O)N[C@@H](CC(=O)c2ccccc2N)C(=O)O[C@@H]1C [DAP, daptomycin]
- Antibiotic susceptibility ([1]; S. aureus ATCC 25923): S
- Antibiotic susceptibility ([1]; S. aureus ATCC 29213): S
- Antibiotic susceptibility ([1]; S. aureus ATCC BAA 976): S
- Antibiotic susceptibility ([1]; S. aureus ATCC BAA 977): S
- Antibiotic susceptibility ([1]; S. aureus ATCC BAA 1026): S
- Antibiotic susceptibility ([1]; Sa1 (MRSA)): S
- Antibiotic susceptibility ([1]; Sa2 (MRSA)): S
- Antibiotic susceptibility ([1]; Sa3 (MRSA)): S
- Antibiotic susceptibility ([1]; Sa6 (MRSA)): S
- Antibiotic susceptibility ([1]; Sa7 (MRSA)): S
- Antibiotic susceptibility ([1]; Sa9 (MRSA)): S
- Antibiotic susceptibility ([1]; Sa11 (MRSA)): S
- Antibiotic susceptibility ([1]; Sa12 (MRSA)): S
- Antibiotic susceptibility ([1]; Sa15 (MRSA)): S
- Antibiotic susceptibility ([1]; Sa16 (MRSA)): S
- Antibiotic susceptibility ([1]; Sa17 (MRSA)): S
- Antibiotic susceptibility ([1]; Sa18 (MRSA)): S
- Antibiotic susceptibility ([1]; Sa19 (MRSA)): S
- Antibiotic susceptibility ([1]; Sa20 (MRSA)): S
- Antibiotic susceptibility ([1]; Sa21 (MRSA)): S
- Antibiotic susceptibility ([1]; Sa22 (MRSA)): S
- Antibiotic susceptibility ([1]; Sa23 (MRSA)): S
- Antibiotic susceptibility [2, 4]: S
- Antibiotic susceptibility [2, 5]: S
- Antibiotic susceptibility [2, 6]: S
- Antibiotic susceptibility [2, 7]: S
- Antibiotic susceptibility [2, 8]: S
- Antibiotic susceptibility (Staphylococcus hominis; Sh1 (Staphylococcus hominis)): S
- Antibiotic susceptibility (Staphylococcus hominis; Sh2 (Staphylococcus hominis)): S
- Antibiotic susceptibility (Staphylococcus hominis; Sh3 (Staphylococcus hominis)): S
- Antibiotic susceptibility [3, 9]: S
- Antibiotic susceptibility [3, 10]: S

Structure (SMILES): C[C@H]1c2cccc(O)c2C(=O)C2=C(O)[C@]3(O)C(=O)C(C(N)=O)=C(O)[C@@H](N(C)C)[C@@H]3[C@@H](O)[C@@H]21 [DOX, doxycycline]
- Antibiotic susceptibility ([1]; S. aureus ATCC 25923): S
- Antibiotic susceptibility ([1]; S. aureus ATCC 29213): S
- Antibiotic susceptibility ([1]; S. aureus ATCC BAA 976): S
- Antibiotic susceptibility ([1]; S. aureus ATCC BAA 977): S
- Antibiotic susceptibility ([1]; S. aureus ATCC BAA 1026): S
- Antibiotic susceptibility ([1]; Sa1 (MRSA)): S
- Antibiotic susceptibility ([1]; Sa2 (MRSA)): S
- Antibiotic susceptibility ([1]; Sa3 (MRSA)): S
- Antibiotic susceptibility ([1]; Sa6 (MRSA)): S
- Antibiotic susceptibility ([1]; Sa7 (MRSA)): S
- Antibiotic susceptibility ([1]; Sa9 (MRSA)): S
- Antibiotic susceptibility ([1]; Sa11 (MRSA)): S
- Antibiotic susceptibility ([1]; Sa12 (MRSA)): S
- Antibiotic susceptibility ([1]; Sa14 (MRSA)): S
- Antibiotic susceptibility ([1]; Sa15 (MRSA)): S
- Antibiotic susceptibility ([1]; Sa16 (MRSA)): S
- Antibiotic susceptibility ([1]; Sa17 (MRSA)): S
- Antibiotic susceptibility ([1]; Sa18 (MRSA)): S
- Antibiotic susceptibility ([1]; Sa19 (MRSA)): S
- Antibiotic susceptibility ([1]; Sa20 (MRSA)): S
- Antibiotic susceptibility ([1]; Sa21 (MRSA)): S
- Antibiotic susceptibility ([1]; Sa22 (MRSA)): S
- Antibiotic susceptibility ([1]; Sa23 (MRSA)): S
- Antibiotic susceptibility [2, 4]: S
- Antibiotic susceptibility [2, 5]: S
- Antibiotic susceptibility [2, 6]: S
- Antibiotic susceptibility [2, 7]: S
- Antibiotic susceptibility [2, 8]: S
- Antibiotic susceptibility (Staphylococcus hominis; Sh1 (Staphylococcus hominis)): S
- Antibiotic susceptibility (Staphylococcus hominis; Sh2 (Staphylococcus hominis)): R
- Antibiotic susceptibility (Staphylococcus hominis; Sh3 (Staphylococcus hominis)): S
- Antibiotic susceptibility [3, 9]: S
- Antibiotic susceptibility [3, 10]: S

Structure (SMILES): CC[C@H]1OC(=O)[C@H](C)[C@@H](O[C@H]2C[C@@](C)(OC)[C@@H](O)[C@H](C)O2)[C@H](C)[C@@H](O[C@@H]2O[C@H](C)C[C@H](N(C)C)[C@H]2O)[C@](C)(O)C[C@@H](C)C(=O)[C@H](C)[C@@H](O)[C@]1(C)O [ERY, erythromycin]
- Antibiotic susceptibility ([1]; S. aureus ATCC 25923): S
- Antibiotic susceptibility ([1]; S. aureus ATCC 29213): S
- Antibiotic susceptibility ([1]; S. aureus ATCC BAA 976): R
- Antibiotic susceptibility ([1]; S. aureus ATCC BAA 977): R
- Antibiotic susceptibility ([1]; S. aureus ATCC BAA 1026): R
- Antibiotic susceptibility ([1]; Sa1 (MRSA)): R
- Antibiotic susceptibility ([1]; Sa2 (MRSA)): R
- Antibiotic susceptibility ([1]; Sa3 (MRSA)): R
- Antibiotic susceptibility ([1]; Sa5 (MRSA)): R
- Antibiotic susceptibility ([1]; Sa6 (MRSA)): R
- Antibiotic susceptibility ([1]; Sa7 (MRSA)): R
- Antibiotic susceptibility ([1]; Sa8 (MRSA)): R
- Antibiotic susceptibility ([1]; Sa9 (MRSA)): R
- Antibiotic susceptibility ([1]; Sa10 (MRSA)): R
- Antibiotic susceptibility ([1]; Sa11 (MRSA)): R
- Antibiotic susceptibility ([1]; Sa12 (MRSA)): R
- Antibiotic susceptibility ([1]; Sa14 (MRSA)): R
- Antibiotic susceptibility ([1]; Sa15 (MRSA)): R
- Antibiotic susceptibility ([1]; Sa16 (MRSA)): R
- Antibiotic susceptibility ([1]; Sa17 (MRSA)): R
- Antibiotic susceptibility ([1]; Sa18 (MRSA)): R
- Antibiotic susceptibility ([1]; Sa19 (MRSA)): R
- Antibiotic susceptibility ([1]; Sa20 (MRSA)): R
- Antibiotic susceptibility ([1]; Sa21 (MRSA)): R
- Antibiotic susceptibility ([1]; Sa22 (MRSA)): R
- Antibiotic susceptibility ([1]; Sa23 (MRSA)): R
- Antibiotic susceptibility [2, 4]: S
- Antibiotic susceptibility [2, 5]: R
- Antibiotic susceptibility [2, 6]: R
- Antibiotic susceptibility [2, 7]: R
- Antibiotic susceptibility [2, 8]: R
- Antibiotic susceptibility (Staphylococcus hominis; Sh1 (Staphylococcus hominis)): R
- Antibiotic susceptibility (Staphylococcus hominis; Sh2 (Staphylococcus hominis)): S
- Antibiotic susceptibility (Staphylococcus hominis; Sh3 (Staphylococcus hominis)): R
- Antibiotic susceptibility [3, 9]: I
- Antibiotic susceptibility [3, 10]: S

Structure (SMILES): CO[C@@]1(NC(=O)Cc2cccs2)C(=O)N2C(C(=O)O)=C(COC(N)=O)CS[C@@H]21 [FOX, Cefoxitin]
- FOX screen ([1]; S. aureus ATCC 25923): Neg
- FOX screen ([1]; S. aureus ATCC 29213): Neg
- FOX screen ([1]; S. aureus ATCC BAA 976): POS
- FOX screen ([1]; S. aureus ATCC BAA 977): Neg
- FOX screen ([1]; S. aureus ATCC BAA 1026): POS
- FOX screen ([1]; Sa1 (MRSA)): POS
- FOX screen ([1]; Sa2 (MRSA)): POS
- FOX screen ([1]; Sa3 (MRSA)): POS
- FOX screen ([1]; Sa6 (MRSA)): POS
- FOX screen ([1]; Sa7 (MRSA)): POS
- FOX screen ([1]; Sa9 (MRSA)): POS
- FOX screen ([1]; Sa11 (MRSA)): POS
- FOX screen ([1]; Sa12 (MRSA)): POS
- FOX screen ([1]; Sa14 (MRSA)): POS
- FOX screen ([1]; Sa15 (MRSA)): POS
- FOX screen ([1]; Sa16 (MRSA)): POS
- FOX screen ([1]; Sa17 (MRSA)): POS
- FOX screen ([1]; Sa18 (MRSA)): POS
- FOX screen ([1]; Sa19 (MRSA)): POS
- FOX screen ([1]; Sa20 (MRSA)): POS
- FOX screen ([1]; Sa21 (MRSA)): POS
- FOX screen ([1]; Sa22 (MRSA)): POS
- FOX screen ([1]; Sa23 (MRSA)): POS
- FOX screen [2, 4]: POS
- FOX screen [2, 5]: POS
- FOX screen [2, 6]: POS
- FOX screen [2, 7]: POS
- FOX screen [2, 8]: POS
- FOX screen (Staphylococcus hominis; Sh1 (Staphylococcus hominis)): POS
- FOX screen (Staphylococcus hominis; Sh2 (Staphylococcus hominis)): POS
- FOX screen (Staphylococcus hominis; Sh3 (Staphylococcus hominis)): POS
- FOX screen [3, 9]: POS
- FOX screen [3, 10]: POS
